Test results reported in patent publication US20190085024A1, “Alpha-Ketoamide Inhibitors Of Cysteine Proteases” (Phelix Therapeutics, priority 2017, published 2019).

How the values were obtained:
[1] = target: Calpain; assay: Calpain enzyme assay; format: biochemical; conditions: Ki by Morrison equation; pH 7.5, 5 mM CaCl2
[2] = target: Cathepsin L (Homo sapiens, UniProt P07711); assay: Cathepsin L enzyme assay; format: biochemical; conditions: Ki by Morrison equation; pH 5.5, substrate Z-Phe-Arg-Amc; read-out: Cat L
Text: Two wells contained DMSO only for controls.
Velocity was converted to μM/sec.

Chain of Cathepsin L (P07711 114-333, species assumed): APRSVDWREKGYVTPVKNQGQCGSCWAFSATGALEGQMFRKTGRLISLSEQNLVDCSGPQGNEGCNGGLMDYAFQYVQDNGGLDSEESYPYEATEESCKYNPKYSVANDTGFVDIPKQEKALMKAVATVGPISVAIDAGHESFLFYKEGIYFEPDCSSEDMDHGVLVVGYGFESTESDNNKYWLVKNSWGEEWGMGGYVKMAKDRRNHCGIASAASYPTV

Compound | Ki [1] | Ki [2]
CC[C@H](C)C(NC(=O)[C@H](CC(C)C)NC(=O)OCc1ccccc1)C(=O)C(=O)NCC(=O)N[C@H](Cc1ccc2ccccc2c1)C(N)=O (stereo partly shown) [PHELIX304, benzyl (1-((1-((2-((1-amino-3-(naphthalen-2-yl)-1-oxopropan-2-yl)amino)-2-oxoethyl)amino)-4-methyl-1,2-dioxohexan-3-yl)amino)-4-methyl-1-oxopentan-2-yl)carbamate] | 8.24 nM | 0.6 nM
CCC(C)C(C(=O)C(=O)NCC(=O)NC(Cc1ccc2ccccc2c1)C(N)=O)N(C)C(=O)C(CC(C)C)NC(=O)OCc1ccccc1 (stereo not shown) [PHELIX305, benzyl (1-((1-((2-((1-amino-3-(naphthalen-2-yl)-1-oxopropan-2-yl)amino)-2-oxoethyl)amino)-4-methyl-1,2-dioxohexan-3-yl)(methyl)amino)-4-methyl-1-oxopentan-2-yl)carbamate] | 9450 nM | 912 nM
CCC(C)C(C(=O)C(=O)NCC(=O)NC(Cc1ccc2ccccc2c1)C(N)=O)N(C)C(=O)C(CC(C)C)NC(=O)OCc1ccccc1 (stereo not shown) [PHELIX306, benzyl (1-((1-((2-((1-amino-3-(naphthalen-2-yl)-1-oxopropan-2-yl)amino)-2-oxoethyl)amino)-4-methyl-1,2-dioxohexan-3-yl)(methyl)amino)-4-methyl-1-oxopentan-2-yl)carbamate] | 446 nM | 77.6 nM
CCC(C)C(NC(=O)C(Cc1c[nH]cn1)NC(=O)Cc1ccccc1)C(=O)C(=O)NCC(=O)NC(Cc1ccc2ccccc2c1)C(N)=O (stereo not shown) [PHELIX308, 3-(3-(1H-imidazol-4-yl)-2-(2-phenylacetamido)propanamido)-N-(2-((1-amino-3-(naphthalen-2-yl)-1-oxopropan-2-yl)amino)-2-oxoethyl)-4-methyl-2-oxohexanamide] | 1510 nM | 956 nM
CCC(C)C(NC(=O)C(Cc1c[nH]cn1)NC(=O)OCc1ccccc1)C(=O)C(=O)NCC(=O)NC(Cc1ccc2ccccc2c1)C(N)=O (stereo not shown) [PHELIX311, benzyl (1-((1-((2-((1-amino-3-(naphthalen-2-yl)-1-oxopropan-2-yl)amino)-2-oxoethyl)amino)-4-methyl-1,2-dioxohexan-3-yl)amino)-3-(1H-imidazol-4-yl)-1-oxopropan-2-yl)carbamate] | 309 nM | 106 nM
CCC(C)C(NC(=O)C(CC(C)C)NC(=O)Cc1cccnc1)C(=O)C(=O)NCC(=O)NC(Cc1ccc2ccccc2c1)C(N)=O (stereo not shown) [PHELIX312, N-(2-((1-amino-3-(naphthalen-2-yl)-1-oxopropan-2-yl)amino)-2-oxoethyl)-4-methyl-3-(4-methyl-2-(2-(pyridin-3-yl)acetamido)pentanamido)-2-oxohexanamide] | 0.81 nM | 2.65 nM
CCC(C)C(NC(=O)C(CC(C)C)NC(=O)CN1CCN(C)CC1)C(=O)C(=O)NCC(=O)NC(Cc1ccc2ccccc2c1)C(N)=O (stereo not shown) [PHELIX313, N-(2-((1-amino-3-(naphthalen-2-yl)-1-oxopropan-2-yl)amino)-2-oxoethyl)-4-methyl-3-(4-methyl-2-(2-(4-methylpiperazin-1-yl)acetamido)pentanamido)-2-oxohexanamide] | 9.91 nM | < 0.1 nM
CCC(C)C(NC(=O)C(CC(C)C)NC(=O)OCc1ccccc1)C(=O)C(=O)NC(CC(N)=O)C(=O)NC(Cc1ccc2ccccc2c1)C(N)=O (stereo not shown) [PHELIX316, benzyl (1-((1-((4-amino-1-((1-amino-3-(naphthalen-2-yl)-1-oxopropan-2-yl)amino)-1,4-dioxobutan-2-yl)amino)-4-methyl-1,2-dioxohexan-3-yl)amino)-4-methyl-1-oxopentan-2-yl)carbamate] | 8.01 nM | 3.33 nM
CCC(C)C(NC(=O)C(CC(C)C)NC(=O)OCc1ccccc1)C(=O)C(=O)NC(CCC(N)=O)C(=O)NC(Cc1ccc2ccccc2c1)C(N)=O (stereo not shown) [PHELIX317, benzyl (1-((1-((5-amino-1-((1-amino-3-(naphthalen-2-yl)-1-oxopropan-2-yl)amino)-1,5-dioxopentan-2-yl)amino)-4-methyl-1,2-dioxohexan-3-yl)amino)-4-methyl-1-oxopentan-2-yl)carbamate] | 19.8 nM | 1.37 nM
CCC(C)C(NC(=O)C(CC(C)C)NC(=O)OCc1ccccc1)C(=O)C(=O)NCC(=O)NC(Cc1ccccc1)C(N)=O (stereo not shown) [PHELIX318, benzyl (1-((1-((2-((1-amino-1-oxo-3-phenylpropan-2-yl)amino)-2-oxoethyl)amino)-4-methyl-1,2-dioxohexan-3-yl)amino)-4-methyl-1-oxopentan-2-yl)carbamate] | 1.63 nM | 3.82 nM
CCC(C)C(NC(=O)C(CCC(N)=O)NC(=O)Cc1ccccc1)C(=O)C(=O)NCC(=O)NC(Cc1ccc2ccccc2c1)C(N)=O (stereo not shown) [PHELIX320, N^1-(1-((2-((1-amino-3-(naphthalen-2-yl)-1-oxopropan-2-yl)amino)-2-oxoethyl)amino)-4-methyl-1,2-dioxohexan-3-yl)-2-(2-phenylacetamido)pentanediamide] | 38.6 nM | 495 nM
CCC(C)C(NC(=O)C(Cc1ccccc1)NC(=O)Cc1ccccc1)C(=O)C(=O)NCC(=O)NC(Cc1ccc2ccccc2c1)C(N)=O (stereo not shown) [PHELIX321, N-(2-((1-amino-3-(naphthalen-2-yl)-1-oxopropan-2-yl)amino)-2-oxoethyl)-4-methyl-2-oxo-3-(3-phenyl-2-(2-phenylacetamido)propanamido)hexanamide] | 83.9 nM | < 0.1 nM
CCC(C)C(NC(=O)C(CC(N)=O)NC(=O)Cc1ccccc1)C(=O)C(=O)NCC(=O)NC(Cc1ccc2ccccc2c1)C(N)=O (stereo not shown) [PHELIX322, N^1-(1-((2-((1-amino-3-(naphthalen-2-yl)-1-oxopropan-2-yl)amino)-2-oxoethyl)amino)-4-methyl-1,2-dioxohexan-3-yl)-2-(2-phenylacetamido)succinamide] | 71 nM | 101 nM
CCC(C)C(NC(=O)C(NC(=O)Cc1ccccc1)C(C)(C)C)C(=O)C(=O)NCC(=O)NC(Cc1ccc2ccccc2c1)C(N)=O (stereo not shown) [PHELIX323, N-(2-((1-amino-3-(naphthalen-2-yl)-1-oxopropan-2-yl)amino)-2-oxoethyl)-3-(3,3-dimethyl-2-(2-phenylacetamido)butanamido)-4-methyl-2-oxohexanamide] | 2370 ± 1050 nM | 273 nM
CCC(C)C(NC(=O)C(CC(C)C)NC(=O)Cc1ccccn1)C(=O)C(=O)NCC(=O)NC(Cc1ccc2ccccc2c1)C(N)=O (stereo not shown) [PHELIX324, N-(2-((1-amino-3-(naphthalen-2-yl)-1-oxopropan-2-yl)amino)-2-oxoethyl)-4-methyl-3-(4-methyl-2-(2-(pyridin-2-yl)acetamido)pentanamido)-2-oxohexanamide] | 8.15 nM | 1.32 nM
CCC(C)C(NC(=O)OCc1ccccc1)C(=O)C(=O)NCC(=O)NC(Cc1ccc2ccccc2c1)C(N)=O (stereo not shown) [PHELIX325, benzyl (1-((2-((1-amino-3-(naphthalen-2-yl)-1-oxopropan-2-yl)amino)-2-oxoethyl)amino)-4-methyl-1,2-dioxohexan-3-yl)carbamate] | 1210 nM | 239 nM
CCC(C)C(NC(=O)C(CC(C)C)NC(=O)OCc1ccccc1)C(=O)C(=O)NC(CC(N)=O)Cc1ccccc1 (stereo not shown) [PHELIX326, benzyl (1-((1-((4-amino-4-oxo-1-phenylbutan-2-yl)amino)-4-methyl-1,2-dioxohexan-3-yl)amino)-4-methyl-1-oxopentan-2-yl)carbamate] | 702 nM | 60.1 nM
CCC(C)C(NC(=O)C(CC(C)C)NC(=O)OCc1ccccc1)C(=O)C(=O)NCC(=O)NC(Cc1cc2ccccc2[nH]1)C(N)=O (stereo not shown) [PHELIX327, benzyl (1-((1-((2-((1-amino-3-(1H-indol-2-yl)-1-oxopropan-2-yl)amino)-2-oxoethyl)amino)-4-methyl-1,2-dioxohexan-3-yl)amino)-4-methyl-1-oxopentan-2-yl)carbamate] | 9.98 nM | 9.33 nM
CCC(C)C(NC(=O)C(CC(C)C)NC(=O)OCc1ccccc1)C(=O)C(=O)NC(Cc1cnc[nH]1)C(=O)NC(Cc1ccc2ccccc2c1)C(N)=O (stereo not shown) [PHELIX328, benzyl (1-((1-((1-((1-amino-3-(naphthalen-2-yl)-1-oxopropan-2-yl)amino)-3-(1H-imidazol-5-yl)-1-oxopropan-2-yl)amino)-4-methyl-1,2-dioxohexan-3-yl)amino)-4-methyl-1-oxopentan-2-yl)carbamate] | 35.1 nM | 2.52 nM
CCC(C)C(NC(=O)C(CC(C)C)NC(=O)OCc1ccccc1)C(=O)C(=O)NC(CCCNC(=N)N)C(=O)NC(Cc1ccc2ccccc2c1)C(N)=O (stereo not shown) [PHELIX329, benzyl (1-((1-((1-((1-amino-3-(naphthalen-2-yl)-1-oxopropan-2-yl)amino)-5-guanidino-1-oxopentan-2-yl)amino)-4-methyl-1,2-dioxohexan-3-yl)amino)-4-methyl-1-oxopentan-2-yl)carbamate] | 110 nM | 2.67 nM
CCC(C)C(NC(=O)C(CC(C)C)NC(=O)OCc1ccccc1)C(=O)C(=O)NC(CCCNC(=N)N)C(=O)NC(Cc1ccc2ccccc2c1)C(N)=O (stereo not shown) [PHELIX330, benzyl (1-((1-((1-((1-amino-3-(naphthalen-2-yl)-1-oxopropan-2-yl)amino)-5-guanidino-1-oxopentan-2-yl)amino)-4-methyl-1,2-dioxohexan-3-yl)amino)-4-methyl-1-oxopentan-2-yl)carbamate] | 21.4 nM | 2.91 nM
CCC(C)C(NC(=O)C(CC(C)(C)C)NC(=O)Cc1ccccc1)C(=O)C(=O)NCC(=O)NC(Cc1ccc2ccccc2c1)C(N)=O (stereo not shown) [PHELIX331, N-(2-((1-amino-3-(naphthalen-2-yl)-1-oxopropan-2-yl)amino)-2-oxoethyl)-3-(4,4-dimethyl-2-(2-phenylacetamido)pentanamido)-4-methyl-2-oxohexanamide] | 9.26 nM | 1.67 nM
CCC(C)C(NC(=O)C(CC1CC1)NC(=O)Cc1ccccc1)C(=O)C(=O)NCC(=O)NC(Cc1ccc2ccccc2c1)C(N)=O (stereo not shown) [PHELIX332, N-(2-((1-amino-3-(naphthalen-2-yl)-1-oxopropan-2-yl)amino)-2-oxoethyl)-3-(3-cyclopropyl-2-(2-phenylacetamido)propanamido)-4-methyl-2-oxohexanamide] | 2.37 nM | 1.15 nM
